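Assay format: 96-well plates, 48-hour exposure. The concentration for full growth arrest is given as TGI.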
What was measured:
Assay in all cases: inhibition of tumour cell growth, NCI panel, 48 h
MOLT-4 leukemia = test system: MOLT-4 leukemia
NCI-H522 lung = test system: NCI-H522 lung
HCT-116 colon = test system: HCT-116 colon
IGROV1 ovarian = test system: IGROV1 ovarian
OVCAR-5 ovarian = test system: OVCAR-5 ovarian
RPMI-8226 leukemia = test system: RPMI-8226 leukemia
MCF7 breast = test system: MCF7 breast
SNB-75 CNS = test system: SNB-75 CNS
SNB-19 CNS = test system: SNB-19 CNS
HS 578T breast = test system: HS 578T breast

| Compound | TGI (MOLT-4 leukemia) [µM] | TGI (NCI-H522 lung) [µM] | TGI (HCT-116 colon) [µM] | TGI (IGROV1 ovarian) [µM] | TGI (OVCAR-5 ovarian) [µM] | TGI (RPMI-8226 leukemia) [µM] | TGI (MCF7 breast) [µM] | TGI (SNB-75 CNS) [µM] | TGI (SNB-19 CNS) [µM] | TGI (HS 578T breast) [µM] |
| --- | --- | --- | --- | --- | --- | --- | --- | --- | --- | --- |
| Cc1nc2ccccc2c(=O)n1NC(=O)Cc1ccccc1 | > 100 | > 100 | > 100 | > 100 | > 100 | > 100 | > 100 | > 100 | > 100 | > 100 |
| O=C(CCc1cc(O)cc(O)c1)NCCc1ccc(O)c(O)c1 | > 100 | > 100 | > 100 | > 100 | > 100 | > 100 | > 100 | > 100 | > 100 | > 100 |
| Cc1cc2nc3n(c2cc1C)C(c1c(F)cccc1F)SC3 (stereo not given) | 47 | 44.1 | 28.1 | > 10 | 43 | 58.5 | 34.2 | > 100 | 53.4 | 54.2 |
| O=C(NN=C1CCCCC1)Nc1ccccc1Cl | > 100 | > 100 | > 100 | > 100 | > 100 | > 100 | > 100 | 29.6 | > 100 | > 100 |
| O=C1CCC2=C(CCC2)N1CCc1ccc2c(c1)OCO2 | > 100 | > 100 | > 100 | > 100 | > 100 | 45.1 | > 100 | > 100 | > 100 | > 100 |
| CCCCCC(/C=C/[C@@H]1CC(=O)C[C@H]1O[Si](C)(C)C(C)(C)C)OCOCCOC (stereo not given in full) | 4.97 | 4.01 | 13.5 | 9.48 | 28.8 | 6.42 | > 43.5 | 11.5 | 12.9 | 8.04 |
| CC(O)(c1ccccc1)c1nccc2ccccc12 (stereo not given) | > 100 | > 100 | > 100 | > 100 | > 100 | > 100 | > 100 | > 100 | > 100 | > 100 |
| CC[C@@]1(O)C(=O)OCc2c1cc1n(c2=O)Cc2c-1nc1ccccc1c2/C=N\NC(=O)C(N)CS (stereo not given in full) | 2.07 | 25.9 | > 100 | > 85.3 | > 100 | > 100 | > 100 | 14 | > 31.6 | > 100 |
| O=C(Nc1ccc2ccccc2c1)Nn1cnnc1 | > 100 | > 100 | > 100 | > 100 | > 100 | > 100 | > 100 | > 100 | > 100 | > 100 |
| COc1ccc2[nH]c(C(=O)N3CC(CCl)c4ccc([N+](=O)[O-])cc43)cc2c1 (stereo not given) | > 100 | > 100 | > 100 | > 100 | > 100 | > 100 | > 100 | > 88.7 | > 100 | > 100 |
| COc1cc2c3c(cc(Cl)nc3c1OC)C(O)(CC(C)=O)C(=O)N2 (stereo not given) | > 34.5 | 26 | 31.3 | 36.6 | > 56.4 | > 78.6 | 35.9 | > 55.9 | > 54.7 | > 100 |
| CN(N)C(=O)NCCCl | > 100 | > 100 | > 100 | > 100 | > 100 | > 100 | > 100 | > 100 | > 100 | > 100 |
| [N-]=[N+]=C1CNC(=O)NC1=O | > 100 | > 100 | > 100 | > 100 | > 100 | > 100 | > 100 | > 100 | > 100 | > 100 |

Source: PubChem BioAssay (NCI)
